Structures are written as SMILES. Where two headings read alike, the source gives them in different places.

The values that follow come from patent publication US20130225517A1, “Therapeutic Compounds” (University of Iowa Research Foundation, priority 2012, published 2013).

The target in assay [1] is T1, Dnmt1 (Homo sapiens, UniProt P26358). Kind of assay: Differential scanning fluorimetry, direct binding to Dnmt1. The note with it: increase from 44° C.; absence of the DNA or S-adenosyl methionine substrate. The procedure:
(§1) Laccaic acid A was further validated as a Dnmt1 inhibitor in three assays. First, laccaic acid was screened against the methyl-specific restriction endonuclease Glal (SibEnzyme, West Roxbury, Mass.) to ensure that the compound was not inhibiting Glal rather than Dnmt1. Under all conditions tested, Glal had full activity in the presence of laccaic acid A. Next, the concentration dependence of laccaic acid A inhibition on Dnmt1 activity was assessed. Increasing concentrations of laccaic acid A were used in the endonuclease-coupled DNA methylation assay to determine an IC50 value for the compound. Laccaic acid A was determined to have an IC50 value of 400 nM. […] Lastly, differential scanning fluorimetry was used to determine if laccaic acid A was a direct binder of Dnmt1 in the absence of the DNA or S-adenosyl methionine substrate.
On the technique in general: DSF heats the sample and reads unfolding from a dye or from intrinsic fluorescence.

The target in assay [2] is T1, Dnmt1. Kind of assay: Glal restriction endonuclease-coupled DNA methylation assay (Test A). In kind it is biochemical. The source says: A Glal restriction endonuclease-coupled DNA methylation assay was used to assess Dnmt1 activity (Syeda et al, J Biol Chem 2011, 286, 15344-15351). Upon methylation of the DNA substrate by Dnmt1, the DNA substrate is cleaved by Glal, freeing a 5′ fluorophore from the 3′ quencher, and generating a fluorescence signal. Inhibition of Dnmt1 results in a loss of fluorescence generation.
A Glal restriction endonuclease-coupled DNA methylation assay to assess Dnmt1 activity (Syeda et al, J Biol Chem 2011, 286, 15344-15351). Upon methylation of the DNA substrate by Dnmt1, the DNA substrate is cleaved by Glal, freeing a 5′ fluorophore from the 3′ quencher, and generating a fluorescence signal. Inhibition of Dnmt1 results in a loss of fluorescence generation.
First, laccaic acid was screened against the methyl-specific restriction endonuclease Glal (SibEnzyme, West Roxbury, Mass.) to ensure that the compound was not inhibiting Glal rather than Dnmt1. […] Increasing concentrations of laccaic acid A were used in the endonuclease-coupled DNA methylation assay to determine an IC50 value for the compound. […] Lastly, differential scanning fluorimetry was used to determine if laccaic acid A was a direct binder of Dnmt1 in the absence of the DNA or S-adenosyl methionine substrate.

Assay [3] deals with methyl-specific restriction endonuclease Glal. Kind of assay: Counter-screen against methyl-specific restriction endonuclease Glal. In kind it is biochemical. The following applies: under all conditions tested. Here is the method:
as §1
A general note: The purpose of a counterscreen is to sort out artefacts and off-target activity.

Where [4] appears, read: Table 1, Glal restriction endonuclease-coupled DNA methylation assay, read-out: IC50 (μM), Dnmt1 inhibition activity.

T1 sequence (P26358 whole entry): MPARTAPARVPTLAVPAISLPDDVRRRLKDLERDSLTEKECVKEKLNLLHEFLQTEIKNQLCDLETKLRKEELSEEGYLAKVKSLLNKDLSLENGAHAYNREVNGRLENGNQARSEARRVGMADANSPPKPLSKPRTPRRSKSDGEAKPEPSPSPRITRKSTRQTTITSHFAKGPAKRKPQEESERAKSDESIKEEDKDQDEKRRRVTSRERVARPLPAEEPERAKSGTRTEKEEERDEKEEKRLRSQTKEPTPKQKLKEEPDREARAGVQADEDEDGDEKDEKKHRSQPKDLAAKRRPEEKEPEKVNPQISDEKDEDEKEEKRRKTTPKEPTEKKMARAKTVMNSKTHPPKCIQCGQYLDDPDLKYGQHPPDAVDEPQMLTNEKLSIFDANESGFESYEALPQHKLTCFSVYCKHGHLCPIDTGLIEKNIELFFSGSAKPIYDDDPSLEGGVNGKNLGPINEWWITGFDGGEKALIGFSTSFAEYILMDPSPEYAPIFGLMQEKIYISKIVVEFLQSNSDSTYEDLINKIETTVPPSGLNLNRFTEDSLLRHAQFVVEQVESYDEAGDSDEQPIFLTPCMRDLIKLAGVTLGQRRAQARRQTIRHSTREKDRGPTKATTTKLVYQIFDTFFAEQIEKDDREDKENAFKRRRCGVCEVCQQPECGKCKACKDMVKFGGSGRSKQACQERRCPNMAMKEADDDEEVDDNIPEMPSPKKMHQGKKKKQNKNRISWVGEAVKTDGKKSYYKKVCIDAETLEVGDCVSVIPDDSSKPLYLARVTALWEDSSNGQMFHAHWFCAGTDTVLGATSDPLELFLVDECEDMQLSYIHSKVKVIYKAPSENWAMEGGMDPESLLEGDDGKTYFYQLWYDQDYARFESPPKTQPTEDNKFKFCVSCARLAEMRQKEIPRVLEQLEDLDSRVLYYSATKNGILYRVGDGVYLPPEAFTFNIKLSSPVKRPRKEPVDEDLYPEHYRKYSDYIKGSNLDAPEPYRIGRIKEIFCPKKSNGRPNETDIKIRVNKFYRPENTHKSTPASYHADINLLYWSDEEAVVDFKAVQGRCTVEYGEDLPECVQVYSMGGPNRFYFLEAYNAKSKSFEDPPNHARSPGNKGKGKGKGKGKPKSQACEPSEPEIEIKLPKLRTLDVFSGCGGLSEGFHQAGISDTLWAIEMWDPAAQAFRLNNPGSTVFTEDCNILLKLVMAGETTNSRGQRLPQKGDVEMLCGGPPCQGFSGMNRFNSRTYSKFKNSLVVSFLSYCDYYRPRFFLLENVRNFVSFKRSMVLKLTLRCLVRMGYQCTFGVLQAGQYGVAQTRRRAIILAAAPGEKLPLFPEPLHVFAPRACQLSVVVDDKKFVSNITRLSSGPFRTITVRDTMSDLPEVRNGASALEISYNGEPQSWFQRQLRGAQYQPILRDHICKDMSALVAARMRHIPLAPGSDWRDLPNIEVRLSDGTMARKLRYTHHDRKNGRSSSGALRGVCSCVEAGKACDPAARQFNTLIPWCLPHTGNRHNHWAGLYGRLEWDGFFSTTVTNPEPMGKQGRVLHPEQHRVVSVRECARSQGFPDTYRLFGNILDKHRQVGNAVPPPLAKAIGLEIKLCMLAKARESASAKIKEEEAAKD

One may read the IC50 as the point on the concentration scale where inhibition reaches its midpoint. Turning to `CC(=O)NCCc1ccc(O)c(-c2c(O)c(O)c3c(c2O)C(=O)c2c(cc(O)c(C(=O)O)c2C(=O)O)C3=O)c1` [II, Laccaic Acid A], the “observed melting temperature of Dnmt1 after addition of compound” value in assay [1] was determined as 45.7 °C. Moreover, the IC50 is 2.1 µM in assay [2] (setting [4]) and 0.4 µM in assay [2] (increasing concentrations in the endonuclease-coupled DNA methylation assay, read-out: IC50 value, inhibition of Dnmt1 activity). Moreover, in assay [2] (ratio of IC50 values, versus SG14027), the “fold more potent at inhibition of Dnmt1 than SG14027” value is recorded as 5 fold. Also, the “outcome of high throughput screen for inhibitors of Dnmt1 activity” value in assay [2] (screen of the Spectrum collection (Microsource)) is “hit”. Also, the “Glal activity in the presence of compound” value in assay [3] is given as “full activity”.
Regarding `Oc1cc(Cl)ccc1Oc1ccc(Cl)cc1Cl` [III, Triclosan, reference compound], the IC50 in assay [2] (setting [4]) came out at 3.8 µM.
With `O=C(O)c1cc(O)c2c(c1)[C@@H]([C@H]1c3cc(C(=O)O)cc(O)c3C(=O)c3c(O[C@H]4O[C@H](CO)[C@@H](O)[C@H](O)[C@H]4O)cccc31)c1cccc(O[C@H]3O[C@H](CO)[C@@H](O)[C@H](O)[C@H]3O)c1C2=O` [IV, Sennoside A, reference compound], the 50% inhibitory concentration (IC50) in assay [2] (setting [4]) turned out to be 0.45 µM.
On the same count and under the same terms, the figure for `O=C(O)C(S)C(S)C(=O)O` (centres unmarked) [IX, 2,3-Dimercaptosuccinic Acid, reference compound] is 0.33 µM; for `O=C(O)c1cc(O)c2c(c1)[C@@H]([C@@H]1c3cc(C(=O)O)cc(O)c3C(=O)c3c(O[C@H]4O[C@H](CO)[C@@H](O)[C@H](O)[C@H]4O)cccc31)c1cccc(O[C@H]3O[C@H](CO)[C@@H](O)[C@H](O)[C@H]3O)c1C2=O` [V, Sennoside B, reference compound] it is 0.45 µM; for `O=C1c2ccccc2C(=O)c2c1ccc(O)c2O` [VI, Alizarin] it is 11 µM.
For `O=c1c(O)c(-c2ccc(O)c(O)c2)oc2c(O)c(O)cc(O)c12` [VII, Gossypetin], in assay [2] (setting [4]), the concentration for half-maximal inhibition (IC50) is 2.9 µM.
On the same count and under the same terms, the figure for `O=C1C=CC(=O)c2c(O)cccc21` [VIII, Juglone] is 1.7 µM.
`CSc1nc2cc(Cl)c(Oc3cccc(Cl)c3Cl)cc2[nH]1` [XI, Triclabendazole, reference compound]: in assay [2] (setting [4]), the IC50 was 6.1 µM.
